Results reported in patent US20220017486A1, “DOCK1-INHIBITING COMPOUND AND USE THEREOF” (KYUSHU UNIVERSITY, NATIONAL UNIVERSITY CORPORATION, priority 2018, published 2022).

Assays:
[1] = target: T1, DOCK1 (DHR-2 domain) (Homo sapiens, UniProt Q14185); assay: In vitro GEF assay: Rac activation by DOCK1 DHR-2 domain; assay type: biochemical, mice and humans
T1 construct: polypeptide fragments corresponding to the DHR-2 domain of DOCK1 or DOCK2 from mice and humans; Histidine-SUMO (N); made in house; host or cells: E. coli Arctic express (DE3)
T1 sequence (Q14185 1207-1617 limits assumed): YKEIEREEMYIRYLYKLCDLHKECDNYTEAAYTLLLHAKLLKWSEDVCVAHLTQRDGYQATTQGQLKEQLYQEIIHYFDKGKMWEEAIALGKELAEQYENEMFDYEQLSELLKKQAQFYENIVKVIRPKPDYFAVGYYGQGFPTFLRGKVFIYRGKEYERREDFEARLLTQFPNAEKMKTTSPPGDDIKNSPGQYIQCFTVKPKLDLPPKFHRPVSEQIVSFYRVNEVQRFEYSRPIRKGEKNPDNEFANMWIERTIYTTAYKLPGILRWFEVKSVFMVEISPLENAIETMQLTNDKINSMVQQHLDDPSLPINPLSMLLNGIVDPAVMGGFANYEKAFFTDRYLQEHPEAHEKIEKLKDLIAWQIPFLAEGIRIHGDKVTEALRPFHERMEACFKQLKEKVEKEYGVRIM
Protocol: DOCK1 and DOCK2, i.e., DOCK-A subfamily members, both activate Rac by catalyzing the GTP-GDP exchange reaction for Rac via their DHR-2 domains. Therefore, in this Pharmacological Test, the inhibitory effect of the compounds of the present invention on Rac activation by DOCK1 or DOCK2 was assessed in an in vitro GEF assay by using polypeptide fragments corresponding to the DHR-2 domain of DOCK1 or DOCK2 from mice and humans. The in vitro GEF assay was performed using a labeled GTP (Bodipy-FL-GTP, Invitrogen), which has a property of increasing the fluorescence intensity when bound to Rac.
The polypeptide fragments corresponding to the DHR-2 domain of DOCK1 or DOCK2 were prepared by expression in E. coli Arctic express (DE3) cells as N-terminal. Histidine-SUMO tag-fused recombinant proteins, followed by purification by affinity column chromatography on nickel-NTA columns.
Rac was prepared by expression in E. coli BL21 (DE3) cells as an N-terminal GST tag-fused recombinant protein, followed by purification by affinity column chromatography on glutathione-Sepharose columns.
Each of the polypeptide fragments corresponding to the DHR-2 domain of DOCK1 or DOCK2, and a predetermined concentration of each test compound (the compounds of the present invention: 33 types of compounds; and comparative compound: TBOPP) dissolved in DMSO were incubated in a reaction solution A (pH 7.0), which contained 20 mM of MES-NaOH, 150 mM of NaCl, 10 mM of MgCl2, and 20 μM of GDP for 20 minutes at room temperature while being shielded from light to thus prepare GEF pretreated products. The final concentration of DMSO was adjusted to 1 mass % in all of the test samples. For a control test, a GEF pretreated product (control) was prepared by incubation in the same manner using DMSO with no test compounds, instead of the DMSO used above in which each test compound was dissolved.
Separately, Rac was added to the reaction solution A (pH 7.0) to a concentration of 15 μM, and was allowed to stand on for 30 min to form a GDP-Rac complex. Bodipy-FL-GTP was added to a concentration of 3.6 μM to 100 μL of the reaction solution A that contained the thus-prepared GDP-Rac complex, and equilibrated at 30° C. for 2 minutes. After equilibration, 50 μL of the GEF pretreated product prepared as described above was added and reacted at 30° C.
Changes in fluorescence intensity of Bodipy-FL-GTP in the reaction solutions were monitored using an EnSpire spectrofluorometer (Perkin Elmer) (excitation wavelength: 488 nm, fluorescence wavelength: 514 nm). The measured values were corrected so that the fluorescence intensity at the beginning of the reaction (0 sec) was 0. Then, an approximate curve (hyperbola) was obtained by plotting the calculated correction values on the y-axis and the time (t) on the x-axis using GraphPad Prism5 (GraphPad software), and the slope at t=0 to 10 seconds was defined as the initial velocity of the guanine nucleotide exchange reaction. The IC50 value was calculated taking the initial reaction velocity of the control, to which only a solvent (DMSO) was added, as 100%.
Based on the obtained results, columns A and B of FIG. 1, FIG. 2, FIG. 3-1, and FIG. 3-2 show the results evaluating the inhibitory effect on Rac activation by DOCK1 (DHR-2 domain) (IC50 value), and DOCK1-selective inhibitory effect (DOCK1/DOCK2 selectivity) of each test compound. The inhibitory effect on Rac activation by DOCK1 (DHR-2 domain) (IC50 value) was determined from the reaction inhibition curve plotted using values of Rac activation by the DOCK1 DHR-2 domain in the presence of various concentrations of the test compounds, taking the values of the control as 100%. […]

[2] = tested on: mouse lung carcinoma cell line (3LL cells); assay: Cell invasion inhibition assay (Matrigel invasion chamber); assay type: cell-based; conditions: 22 hours, DMSO control as 100% invasion
Protocol: In this Pharmacological Test, the inhibitory effect of each test compound on cell invasion response was evaluated using a mouse lung carcinoma cell line (3LL cells), a mouse pancreatic cancer cell line (PANC02 cells), and a human breast cancer cell line (MDA-MB-157 cells). Of these, the mouse lung carcinoma cell line (3LL) is a cancer cell line with mutant Ras (K-Ras (G12C)), and the human breast cancer cell line (MDA-MB-157) is a cancer cell line with mutant Rac (Rac1 (P29S)). The experiments were performed in BD BioCoat Matrigel invasion chambers (BD Biosciences).
Specifically, an upper chamber with a Matrigel-coated membrane insert (8 μm pores) at the bottom was equilibrated with DMEM (serum-free medium) for 120 minutes. Thereafter, 300 μL of a suspension of a cancer cell line in DMEM (serum-free) was placed in the upper chamber while 500 μL of DMEM (with 10 mass % FCS) was placed in the lower chamber. Each test compound dissolved in DMSO at a predetermined concentration was added to both the culture media in the upper and lower chambers. As a control, DMSO alone was added to both the culture media in the upper and lower chambers. In all of the experiments, the final DMSO concentration in the culture media was adjusted to 0.2 mass %.
The resulting products were cultured under 5% CO2 at 37° C. for 22 hours (3LL and PANC02 cells) or 48 hours (MDA-MB-157 cells). Then, the upper chamber was removed, and the culture medium was removed. Thereafter, non-invading cells remaining in the upper chamber were removed using a cotton swab, and the cells remaining outside the bottom of the upper chamber (cells that had invaded into the Matrigel, and passed through the membrane insert) were stained with Diff-Quick (Sysmex). After staining, the membrane inserts with Matrigel were cut out using a scalpel to prepare slides, and the number of invading cells was counted under an optical microscope.
The results were evaluated based on percent cell invasion (%: Invasion) and percent inhibition (%: Inhibition). The percent cell invasion was obtained by converting the number of invading cells in the presence of each test compound into a percentage, taking the number of invading cells in the control test, in which DMSO was added alone, as 100%; and the percent inhibition was obtained by deducting the percent cell invasion from 100.

[3] = tested on: mouse lung carcinoma cell line (3LL); assay: Tumor growth of subcutaneously transplanted mouse lung carcinoma cells; assay type: in vivo, C57BL/6 mice; conditions: 3LL s.c. in mice, 0.25 mg/300 μL, day 26 to day 29
Protocol: The mouse lung carcinoma cell line (3LL) was suspended in 200 μL of PBS(−), and transplanted (5×10^5 cells per mouse) into the dorsal subcutaneous region of C57BL/6 mice (6 weeks old). To a 6:1:1 mixture of PBS/Cremophor EL/ethanol, RT-22 as a representative of the compounds of the present invention was added to a concentration of 0.25 mg/300 μL, and the resulting mixture was loaded into an SMP-300 micro infusion pump (iPRECIO), which was subcutaneously implanted on the previous day of the transplantation, to perform continuous intravenous administration (n=5 mice). The control group was only administered with an equivalent volume of a solvent (a 6:1:1 mixture of PBS/Cremophor EL/ethanol) (n=6 mice). The transverse and longitudinal diameters of the tumor mass were measured over time for a period of 4 weeks from the start of administration, and the tumor volume (V) was calculated according to the formula: V=π/6x√((transverse diameter×longitudinal diameter)^3).

DOCK1-selective inhibitory effect (DOCK1/DOCK2 selectivity) ([1]; IC50 for DOCK2 divided by IC50 for DOCK1): 2.6
IC50 ([1]; in vitro GEF assay, Bodipy-FL-GTP, DMSO control as 100%, read-out: inhibitory effect (IC50 value) on Rac activation by DOCK1 (DHR-2 domain)): 8.4 µM
SMILES: O=C(Cn1cc(S(=O)(=O)N2CCCC2)ccc1=O)c1ccc(-c2cccc(C(F)(F)F)c2)cc1 [TBOPP, 1-(2-oxo-2-(3′-(trifluoromethyl)-[1,1′-biphenyl]-4-yl)ethyl)-5-(pyrrolidin-1-ylsulfonyl)pyridin-2(1H)-one, reference compound]
percent cell invasion inhibition [2]: 95%
tumor size reduced by, compared to the control group [3]: 21-24%
